Data as given in patent US20260159486A1, “BENZO[H]QUINAZOLINE-4-AMINE DERIVATIVES FOR THE TREATMENT OF CANCER” (Redona Therapeutics, Inc., priority 2021, published 2026).
pIC50: −log10 of the molar value.

Key:
CAL-51 cells = assay: CAL-51 proliferation assay; format: cell-based; conditions: YO-PRO-1 Iodide readout
Outline: (§1)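 Cells seeded at 750 per well, treated next day for 72 h at 37 °C with 0.5% final DMSO. Cell number read by YO-PRO-1 fluorescence after lysis, normalized to DMSO (100%) and time-zero cells (0%). GI50 from 4-parameter logistic fit, maximum constrained to 100%.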

[1] = system: phospho-SRSF6 in MDA-MB-468 cells; assay: Inhibition of phospho-SRSF6 levels in MDA-MB-468 cells (Western blot); format: cell-based; conditions: Homo sapiens, 2 hours, compared to DMSO control; for inhibition at 0.01 µM: 10 nM, read-out: >50% p-SRSF6 reduction at 10 nM; for inhibition at 0.1 µM: 100 nM, read-out: >50% p-SRSF6 reduction at 100 nM
Protocol: FIG. 1: FIG. 1 provides a representative Western blot showing reduction of phosphorylated-SRSF6 (P—SRSF6) in MDA-MB 468 cells by compounds of the invention. GAPDH was probed for by Western blotting to control for equal protein loading and for normalization of samples. The numbers below the blots show percent inhibition of the P—SRSF6 signal at 100 nM (A) or 10 nM (B) compared to DMSO control.
Assessment of Inhibition of Phospho-SRSF6 Levels in MDA-MB-468 Cells
MDA-MB-468 cells (ATCC, HTB-132) were cultured in DMEM (BioConcept cat. no. 1-26F03) supplemented with 10% FBS (Sigma cat. no. F9665), […] (Sigma cat. no. S8636), 1% Penicillin-Streptomycin (BioConcept cat. no. 4-01FOO-H). When cells reached a density of 70% o in 6-well plates (TPP cat. no. 92006), they were treated either with the test compound vehicle DMSO, or with experimental compounds at a final concentration of either 10 or 100 nM for 2 hours. Thereafter, the culture medium was removed and cells were collected by scraping in Lysis Buffer (20 mM Tris HCl pH7.5, 150 mM NaCl, 1 mM EGTA, 1 mM EDTA, 1% o Triton and 1% o NP-40) containing protease and phosphatase inhibitors (Halt™ Protease&Phosphatase inhibitor cocktail 100× ThermioScientific cat. no. 1861281) and 1 mM PMSF (Fluka cat. no. 93482). Cleared lysates were stored in Eppendorfftubes at −80° C. until use, and protein concentration in lysates was determined using Pierce 660 nm Protein Assay Reagent (ThermioScientific cat. no. 22660). 20 μg proteins were diluted in 4× Laemmli buffer (Biorad cat. no. 161-0747) containing 10% beta-mercaptoethanol, separated by SDS-PAGE using 10% gels, and then transferred to PVDF membranes (Trans Blot Turbo Transfer Pack BioRad cat. no. 1704156) by Trans-Blot® Turbo™ System semidry blotting methodology (BioRad). Primary antibodies were incubated in TBS-0.1% Tween-20 buffer containing 3% BSA Bovine Albumin Fr.V (Millipore cat. no. 81-053-3) overnight at 4° C. The following primary antibodies were used: Mouse anti-phosphoepitope SR proteins clone 1H4 (Millipore cat. no. MABE50) diluted 1:5000, and rabbit anti-GAPDH clone 14C10 (Cell Signaling cat. no. 2118S) to control for equal protein loading, diluted 1:2000. HRP-conjugated secondary antibodies were incubated one hour at room temperature diluted 1:5000 in TBS-0.1% Tween-20 buffer containing […] nonfat-dried bovine milk (Sigma cat. no. M7409). The following secondary antibodies were used: Goat anti-mouse-HRP (Jackson cat. no. 115-035-146) and goat anti-rabbit-HRP (Jackson cat. no. 111-035-144). Membranes were incubated with ECL Prime Western Blot Detection Reagent (Amersham cat. no. RPN2236) to detect specific signals using Fusion SOLO S device (Vilber Lourmat). Pixel intensity of the phopsho-SRSF6 (MW 55 kDa in reference to markers) and GAPDH (MW 37 kDa) signals in the Western blots were determined using Evolution-Capt image analysis software (v17.01, Vilber Lourmat). DMSO control was used to set the phospho-SRSF6 signal at baseline, phospho-SRSF6 signals for each sample were normalized by the respective GAPDH signals and percent intensity of P—SRSF6 signal at 10 and 100 nM compound compared to DMSO control was calculated (see FIG. 1).

MDA-MB-231 cells = assay: MDA-MB-231 proliferation assay; format: cell-based; conditions: YO-PRO-1 Iodide readout
Outline: as §1

recombinant human CLK3 = target: T1, recombinant human CLK3 (Homo sapiens, UniProt P49761); assay: CLK3 kinase assay (LANCE Ultra); format: biochemical; conditions: CLK3 0.5 nM, ATP 300 μM, 3 hours at 30° C.
T1 construct: purchased Thermo Fisher Scientific PV3826
T1 sequence (P49761 whole entry): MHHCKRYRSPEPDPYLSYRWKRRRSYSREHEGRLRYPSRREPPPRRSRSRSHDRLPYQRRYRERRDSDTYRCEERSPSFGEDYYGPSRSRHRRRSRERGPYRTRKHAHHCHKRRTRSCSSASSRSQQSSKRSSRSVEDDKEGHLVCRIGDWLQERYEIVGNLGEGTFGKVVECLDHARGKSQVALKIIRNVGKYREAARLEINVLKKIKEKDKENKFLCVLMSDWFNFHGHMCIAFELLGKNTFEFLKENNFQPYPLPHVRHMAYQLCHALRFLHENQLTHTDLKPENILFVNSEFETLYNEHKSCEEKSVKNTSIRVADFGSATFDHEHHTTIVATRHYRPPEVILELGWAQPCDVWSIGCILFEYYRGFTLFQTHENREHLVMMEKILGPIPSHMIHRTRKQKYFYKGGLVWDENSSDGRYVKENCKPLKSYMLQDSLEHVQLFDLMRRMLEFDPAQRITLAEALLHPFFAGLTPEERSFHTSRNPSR
Outline: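 Recombinant human CLK3 (0.5 nM) with ULight-CREBtide (50 nM) and 300 μM ATP, 3 h at 30 °C in kinase buffer; EDTA stop, then Eu-anti-phospho-CREB antibody (2 nM, 1 h RT), TR-FRET read at 665/620 nm. Inhibition normalized to DMSO and no-ATP wells; IC50 from 4-parameter fit, ten 1:3 concentrations in duplicate.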

SMILES	GI50 (CAL-51 cells; 72 hours) [nM]	inhibition at 0.01 µM [1] [%]	inhibition at 0.1 µM [1] [%]	GI50 (MDA-MB-231 cells; 72 hours) [nM]	pIC50 (recombinant human CLK3)	GI50 (CAL-51 cells; Homo sapiens, CAL-51, 72 h) [nM]	GI50 (MDA-MB-231 cells; Homo sapiens, MDA-MB-231, 72 h) [nM]
CC1(C)Cc2c(ccc(O[C@H]3CC[C@H](N)CC3)c2N2CCC(O)C2)-c2ncnc(N)c21 (single isomer, unassigned) [Example 16, 1-[4-amino-8-(trans-4-aminocyclohexoxy)-5,5-dimethyl-6H-benzo[h]quinazolin-7-yl]pyrrolidin-3-ol]	< 100	> 50	> 50	< 100	> 7.52		
CCN(CC)c1c(O[C@H]2CC[C@H](N)CC2)ccc2c1CC(C)(C)c1c(N)ncnc1-2 [Example 7, 8-(trans-4-aminocyclohexoxy)-N7,N7-diethyl-5,5-dimethyl-6H-benzo[h]quinazoline-4,7-diamine]		> 50	> 50		> 7.52	100 to 2000	100 to 2000
CCNc1c(O[C@H]2CC[C@H](N)CC2)ccc2c1CC(C)(C)c1c(N)ncnc1-2 [Example 8, 8-(trans-4-aminocyclohexoxy)-N7-ethyl-5,5-dimethyl-6H-benzo[h]quinazoline-4,7-diamine]		< 50	> 50		7.00 to 7.52	< 100	100 to 2000
CN(CCO)c1c(O[C@H]2CC[C@H](N)CC2)ccc2c1CC(C)(C)c1c(N)ncnc1-2 [Example 12, 2-[[4-amino-8-(trans-4-aminocyclohexoxy)-5,5-dimethyl-6H-benzo[h]quinazolin-7-yl]-methyl-amino]ethanol]		< 50	> 50		> 7.52	< 100	< 100
CC1(C)Cc2c(ccc(O[C@H]3CC[C@H](N)CC3)c2-n2cccc2)-c2ncnc(N)c21 [Example 17, 8-(trans-4-aminocyclohexoxy)-5,5-dimethyl-7-pyrrol-1-yl-6H-benzo[h]quinazolin-4-amine]		< 50	> 50		> 7.52	< 100	< 100
CN(C)c1c(O[C@H]2CC[C@H](N)CC2)ccc2c1CC(C)(C)c1c(N)ncnc1-2 [Example 20, 8-(trans-4-aminocyclohexoxy)-N7,N7,5,5-tetramethyl-6H-benzo[h]quinazoline-4,7-diamine]		> 50	> 50		> 7.52	< 100	< 100
CN(CC#N)c1c(O[C@H]2CC[C@@H](N)CC2)ccc2c1CC(C)(C)c1c(N)ncnc1-2 [Example 30, 2-[[4-amino-8-(cis-4-aminocyclohexoxy)-5,5-dimethyl-6H-benzo[h]quinazolin-7-yl]-methyl-amino]acetonitrile]		> 50	> 50		> 7.52	< 100	< 100
COc1ccc2c(c1NCc1nnc(C(C)F)o1)CC(C)(C)c1c(N)ncnc1-2 (centres unmarked) [Example 122, N7-[[5-(1-fluoroethyl)-1,3,4-oxadiazol-2-yl]methyl]-8-methoxy-5,5-dimethyl-6H-benzo[h]quinazoline-4,7-diamine]					6.00 to 7.00	100 to 2000	> 2000
CN(C)CCOc1ccc2c(c1N(C)CCC#N)CC(C)(C)c1c(N)ncnc1-2 [Example 123, 3-[[4-amino-8-[2-(dimethylamino)ethoxy]-5,5-dimethyl-6H-benzo[h]quinazolin-7-yl]-methyl-amino]propanenitrile]					> 7.52	< 100	< 100
COc1ccc2c(c1N(CCC#N)Cc1nnc(C(C)F)o1)CC(C)(C)c1c(N)ncnc1-2 (centres unmarked) [Example 124, 3-[(4-amino-8-methoxy-5,5-dimethyl-6H-benzo[h]quinazolin-7-yl)-[[5-(1-fluoroethyl)-1,3,4-oxadiazol-2-yl]methyl]amino]propanenitrile]					6.00 to 7.00	100 to 2000	100 to 2000
CN(CCC#N)c1c(N2CCNCC2)ccc2c1CC(C)(C)c1c(N)ncnc1-2 [Example 125, 3-[(4-amino-5,5-dimethyl-8-piperazin-1-yl-6H-benzo[h]quinazolin-7-yl)-methyl-amino]propanenitrile]					> 7.52	< 100	< 100
CN(C[C@@H]1CNC(=O)O1)c1c(Br)ccc2c1CC(C)(C)c1c(N)ncnc1-2 [Example 126, (5S)-5-[[(4-amino-8-bromo-5,5-dimethyl-6H-benzo[h]quinazolin-7-yl)-methyl-amino]methyl]oxazolidin-2-one]					7.00 to 7.52	100 to 2000	100 to 2000
CC1(C)Cc2c(ccc(Br)c2NC[C@@H]2CN(CCO)C(=O)O2)-c2ncnc(N)c21 [Example 127, (5R)-5-[[(4-amino-8-bromo-5,5-dimethyl-6H-benzo[h]quinazolin-7-yl)amino]methyl]-3-(2-hydroxyethyl)oxazolidin-2-one]					7.00 to 7.52	100 to 2000	100 to 2000
CC1(C)Cc2c(ccc(O[C@H]3CC[C@@H](N)CC3)c2NC[C@@H]2CNC(=O)O2)-c2ncnc(N)c21 [Example 128, (5R)-5-[[[4-amino-8-(cis-4-aminocyclohexoxy)-5,5-dimethyl-6H-benzo[h]quinazolin-7-yl]amino]methyl]oxazolidin-2-one]					> 7.52	> 2000	> 2000
CC1(C)Cc2c(ccc(O[C@H]3CC[C@H](N)CC3)c2NC[C@@H]2CNC(=O)O2)-c2ncnc(N)c21 [Example 129, (5R)-5-[[[4-amino-8-(trans-4-aminocyclohexoxy)-5,5-dimethyl-6H-benzo[h]quinazolin-7-yl]amino]methyl]oxazolidin-2-one]					> 7.52	> 2000	> 2000
CC1(C)Cc2c(ccc(O[C@H]3CC[C@@H](N4CCOCC4)CC3)c2NC[C@@H]2CNC(=O)O2)-c2ncnc(N)c21 [Example 130, (5R)-5-[[[4-amino-5,5-dimethyl-8-(cis-4-morpholinocyclohexoxy)-6H-benzo[h]quinazolin-7-yl]amino]methyl]oxazolidin-2-one]					> 7.52	100 to 2000	> 2000
CC1(C)Cc2c(ccc(O[C@H]3CC[C@H](N4CCOCC4)CC3)c2NC[C@@H]2CNC(=O)O2)-c2ncnc(N)c21 [Example 131, (5R)-5-[[[4-amino-5,5-dimethyl-8-(trans-4-morpholinocyclohexoxy)-6H-benzo[h]quinazolin-7-yl]amino]methyl]oxazolidin-2-one]					> 7.52	100 to 2000	100 to 2000
CC1(C)Cc2c(ccc(Br)c2N(CCC#N)C[C@@H]2CNC(=O)O2)-c2ncnc(N)c21 [Example 132, 3-[(4-amino-8-bromo-5,5-dimethyl-6H-benzo[h]quinazolin-7-yl)-[[(5S)-2-oxooxazolidin-5-yl]methyl]amino]propanenitrile]					> 7.52	100 to 2000	100 to 2000
